In test [1] the test system is C57BL/6J male mice. Briefly: Open field test. The class given is in vivo. The settings on record: 5 minutes exploration. The text has this:
The open field test is a test that evaluates spontaneous activity, anxiety-like behavior, and the like in a novel environment by measuring the distance traveled, the number of rearings, the stereotyped behavior, the time spent in the center section, and the like under the novel environment. A mouse is placed in an open field, which is a novel and bright environment for a mouse, and is allowed to freely explore the open field for a certain period of time. The open field has a circular or square shape, and the size, in the case of a square, varies from a side of over 1 m to 30 cm or less. The experiment time is approximately 5 minutes in general, and significant overactivity, dormancy, and the like can be detected through observation for such a short period of time. In addition, a change in the behavior of an animal over time under a novel environment can be observed by recording for a long period of time. Since it is said that mice get accustomed to the open field environment by 30 minutes to approximately 2 hours, the experiment time is often set between 30 minutes to 3 hours. Also, the open field test is often used for analyzing the phenotyping of gene-modified mice and testing the reactivity to pharmaceutical agents. […] The duration of time spent in the center square (9×9 […]) during an exploratory behavior time of 5 minutes was measured.

The subject of test [2] is paraventricular nucleus (PVN), supraoptic nucleus (SON) and new region of the hypothalamus. The test is described as follows: c-Fos immunostaining of hypothalamus sections after oral administration. The format is in vivo, C57BL/6J male mice. To be noted: oral 1 or 3 g/kg, fasted mice, 90 minutes after administration, vs saline (FIG. 1A). Here is the method: For brain regions that are activated by the oral administration of D-allulose, the expression levels of a neuronal activation marker (c-Fos) were analyzed by the immunostaining method. c-Fos is one of immediate early genes, is a nuclear protein whose expression level increases along with activation of nerves, and thus can be utilized as a neuronal activation marker. C57BL/6J male mice were used as experimental animals and were acclimatized to an environment through preliminary breeding and handling for 1 week or more in individual cages. Saline or D-allulose (1 or 3 g/kg) was orally intragastrically administered to the mice which were fasted for one night, and 90 minutes after the administration, the mice were perfusion fixed in a 4% paraformaldehyde solution and the brains were resected. The organs were postfixed in a 4% paraformaldehyde solution to prepare frozen section specimens. This frozen section specimen was used to immunostain c-Fos. In the case of double immunostaining for oxytocin/vasopressin and c-Fos, the perfusion fixation and the postfixation were conducted in a mixed solution of 4% paraformaldehyde and 0.2% picric acid. Note that in the experiment for analyzing c-FOS expression level (FIG. 1A to FIG. 1D), C57BL/6J male mice of saline group: n=7, 1 g/kg and 3 g/kg D-allulose group: n=5 each were used. […]

For another test, the system named is vasopressin mRNA. Briefly: vasopressin mRNA expression in hypothalamus, quantitative real-time PCR. The class given is in vivo, C57BL/6J male mice. The settings on record: oral 3 g/kg, 2 hours after administration, vs saline-administered group, relative to 36b4 (FIG. 5). The method, then:
(§1) C57BL/6J male mice (saline group: n=8, D-allulose group: n=9) were used as experimental animals and were acclimatized to an environment through preliminary breeding and handling for 1 week or more in individual cages. Saline or D-allulose (3 g/kg) was orally intragastrically administered to the mice which were fasted for one night, and 2 hours after the administration, the brain's hypothalamus was resected under anesthesia. cDNA was synthesized using the total RNA in hypothalamus as a template. The mRNA expression levels of oxytocin and vasopressin were quantified by the quantitative real-time PCR method. As the housekeeping gene, 36b4 was used. The mRNA expression levels were quantified in accordance with the ΔΔCt method. The target gene expression level in each sample was corrected with the expression level of 36b4 to obtain the relative expression level to 36b4 (ΔCT=the CT value of 36b4−the CT value of the target gene, the relative expression level=2ΔCT).
(§2) Moreover, the mRNA expression level ratio with the average value of the relative expression level of the saline group being set to 1 (the average value of the relative gene expression level of the D-allulose group to 36b4/the average value of the relative expression level of the saline group to 36b4) was obtained to analyze the change in gene expression level in the administration of D-allulose. […]
For orientation: Quantitative PCR measures a nucleic acid by following its amplification.

Test [3] relates to vasopressin (AVP) neurons. Briefly: double immunostaining for vasopressin and c-Fos after oral administration. The class given is in vivo, C57BL/6J male mice. To be noted: oral 3 g/kg, 90 minutes after administration. The method, then: (§3) For brain regions that are activated by the oral administration of D-allulose, the expression levels of a neuronal activation marker (c-Fos) were analyzed by the immunostaining method. c-Fos is one of immediate early genes, is a nuclear protein whose expression level increases along with activation of nerves, and thus can be utilized as a neuronal activation marker. C57BL/6J male mice were used as experimental animals and were acclimatized to an environment through preliminary breeding and handling for 1 week or more in individual cages. Saline or D-allulose (1 or 3 g/kg) was orally intragastrically administered to the mice which were fasted for one night, and 90 minutes after the administration, the mice were perfusion fixed in a 4% paraformaldehyde solution and the brains were resected. The organs were postfixed in a 4% paraformaldehyde solution to prepare frozen section specimens. This frozen section specimen was used to immunostain c-Fos. In the case of double immunostaining for oxytocin/vasopressin and c-Fos, the perfusion fixation and the postfixation were conducted in a mixed solution of 4% paraformaldehyde and 0.2% picric acid. In the experiment for analyzing c-Fos positive neurons in the vasopressin (AVP) neurons of paraventricular nucleus (PVN) (FIG. 2C and FIG. 2D), C57BL/6J male mice of saline group: n=4, 3 g/kg D-allulose group: n=6 were used. In the experiment for analyzing c-Fos positive neurons in the oxytocin (OXT) neurons or vasopressin (AVP) neurons of paraventricular nucleus (PVN) (FIG. 3A and FIG. 3B), C57BL/6J male mice of saline group n=4, 3 g/kg D-allulose group: n=6 were used. In the experiment for analyzing c-Fos positive neurons in the oxytocin (OXT) neurons or vasopressin (AVP) neurons of the new region (FIG. 4A and FIG. 4B), C57BL/6J male mice of saline group: n=4, 3 g/kg D-allulose group: n=6 were used. The obtained results are represented by the average values and the standard errors, the statistical testing used the unpaired t-test, * is described by the P value of less than 5% and ** is described by the P value of less than 1%.

For test [4], the system named is C57BL/6J male mice. Briefly: Sociality test (social interaction test). The class given is in vivo. The settings on record: 10 minutes, vs saline, p<0.05 (FIG. 7B). The method, then: The sociality test (also called the social interaction test) is an open field test using 2 individual mice that meet for the first time in order to investigate the sociality. The fundamental procedure of the sociality test is the same as that of the open field test using 1 individual member. However, at the time of starting the behavioral observation, mice are placed at the opposing corners of the field and their moving is recorded as moving picture for 10 minutes. This test is intended to evaluate the sociality of mice by measuring frequencies and times of social behaviors such as sniffing, grooming, attack, and tail-rattling between 2 individual members. C57BL/6J male mice (8-week old) were bred for 1 week under a free-feeding condition with a light-dark cycle of 12 hours and were subjected to the open field and sociality tests. Handling and gavage training was conducted for 4 days before the test. In order to evaluate the sociality with a same-sex mouse, each mouse was placed together with a mouse (new mouse) which it met for the first time in a breeding cage (27×27×20 cm^3) and an accumulation time of the exploratory behavior against the new mouse during an exploratory behavior time of 10 minutes was measured.

A further test concerns oxytocin mRNA. The test is described as follows: oxytocin mRNA expression in hypothalamus, quantitative real-time PCR. To be noted: oral 3 g/kg, 2 hours after administration, vs saline-administered group, relative to 36b4 (FIG. 5). The class given is in vivo, C57BL/6J male mice. The method, then: as §1, §2
In a further test the test system is oxytocin (OXT) neurons. The test is described as follows: double immunostaining for oxytocin and c-Fos after oral administration. The class given is in vivo, C57BL/6J male mice. The settings on record: oral 3 g/kg, 90 minutes after administration. The method, then:
as §3, with “in the oxytocin (OXT) neurons of paraventricular nucleus (PVN) (FIG. 2A and FIG. 2B), C57BL/6J male mice of saline group: n=4, 3 g/kg D-allulose group: n=6 were used. In the experiment for analyzing c-Fos positive neurons in the vasopressin (AVP)” for “in the vasopressin (AVP)”, “were used. […]” for “were used. The obtained results are represented by the average values and the standard errors, the statistical testing used the unpaired t-test, * is described by the P value of less than 5% and ** is described by the P value of less than 1%.”

Take `O=C(CO)[C@H](O)[C@H](O)[C@H](O)CO` [D-allulose]: the “anxiety behavior: duration of time spent in the center square” value in the test with C57BL/6J male mice [1] (1 g/kg oral 30 minutes before test, vs saline (FIG. 6B)) is “no significant result”; in the test on C57BL/6J male mice [1] (3 g/kg oral 30 minutes before test, vs saline, p<0.05 (FIG. 6B)), “significantly improved”. Further, the “c-Fos expression level in the paraventricular nucleus (PVN), the supraoptic nucleus (SON), and a new region of the hypothalamus” value in test [2] is listed as “significantly facilitated”. Also, the “expression of the mRNA of vasopressin in the hypothalamus” value in the test on vasopressin mRNA is on record as “significantly enhanced”. For the same compound, in test [3] (vs saline (FIGS. 2C, 2D)), the “activation (c-Fos) of the vasopressin (AVP) neuron of the paraventricular nucleus (PVN)” value is listed as “activated”. Moreover, in test [3] (vs saline (FIGS. 3A, 3B)), the “activation (c-Fos) of the vasopressin neurons of the supraoptic nucleus (SON)” value was “activated”. The “activation (c-Fos) of the vasopressin neurons in the new region of the hypothalamus” value in test [3] (vs saline (FIGS. 4A, 4B)) was “activated”. Also, the “social behavior: accumulation time of exploratory behavior against the new mouse” value in the test with C57BL/6J male mice [4] (1 g/kg oral) and in the test with C57BL/6J male mice [4] (3 g/kg oral) was “significantly facilitated” each time. In addition, the “expression of the mRNA of oxytocin in the hypothalamus” value in the test on oxytocin mRNA was “significantly enhanced”. The “c-Fos expression level in the oxytocin (OXT) neuron of the paraventricular nucleus (PVN)” value with oxytocin (OXT) neurons (vs saline (FIGS. 2A, 2B)) was “significantly increased”. The “activation (c-Fos) of the oxytocin neurons of the supraoptic nucleus (SON)” value with oxytocin (OXT) neurons (vs saline (FIGS. 3A, 3B)) was “activated”. In the test on oxytocin (OXT) neurons (vs saline (FIGS. 4A, 4B)), the “activation (c-Fos) of the oxytocin neurons in the new region of the hypothalamus” value was “activated”.

The values are drawn from patent US11318152B2, “Pharmaceutical agent for improving autism spectrum disorder and mental disease” (MATSUTANI CHEMICAL INDUSTRY CO., LTD., priority 2018, dated 2022).
